{
  "source": "patent US20250326792A1",
  "about": "“A FORMULATION FOR TREATMENT OF PIGMENTARY DISORDERS” (priority 2022, published 2025)",
  "key": {"Tyrosinase [1]": {"system": "Tyrosinase", "assay": "Tyrosinase activity assay (L-DOPA) in B16F10 cells", "assay_type": "cell-based", "settings": "for % increase in tyrosinase activity compared to control / Change in tyrosinase activity: TYROSINASE ACTIVITY table", "method": "(§1) Culture and maintenance of cell lines: B16F10 cells were cultured in RPMI containing 10% fetal bovine serum, 100 units per millilitre (U/mL) penicillin, 0.1 mg/mL streptomycin, and 0.25 microgram per millilitre (μg/mL) amphotericin B at 37 degrees Celsius in a humidified 95% air/5% CO2 incubator. Drug treatment was done 24 hours after seeding. Cells were harvested 48 hours later and melanin content and tyrosinase activity determined in triplicate. NHEM cells were cultured in DMEM containing 10% fetal bovine serum, 100 units per milliliter (U/mL) penicillin, 0.1 mg/mL streptomycin, and 0.25 microgram per millilitre (μg/mL) amphotericin B at 37 degrees Celsius in a humidified 95% air/5% CO2 incubator. Drug treatment was done 24 hours after seeding. Cells were harvested 48 hours later and melanin content and tyrosinase activity determined in triplicate.\n(§2) IS103 was dissolved in water for injection or DMSO to prepare stock solution of about 50 mg/ml. The stock solution was used for preparation of subsequent dilutions in solvent to achieve working dilutions for treatment ranging 0.1 μg/ml to 1000 μg/ml.\n(§3) Tyrosinase activity was determined using L-DOPA as a substrate. Briefly, B16F10 and NHEM cells were seeded in a 6-well plate (2×10^4 cells/well) and incubated for overnight. The cells were then treated with or without the test compounds for 46 hours and were washed twice with ice cold PBS and extracted by sonication in 100 μl of 0.1M Tris-HCl buffer (pH 7.2) containing 1% Nonidet P-40, 0.01% SDS, 100 μM phenyl methyl sulfonyl fluoride, and 1 μg/ml aprotinin and then centrifuged at 10,000 g for about 10 minutes at 4° C. The supernatants collected were used for enzyme assay and its protein content was estimated by method of Bradford using BSA as standard. Samples of cell extract supernatant were incubated in duplicate for 1 hour at 37° C. in 1 ml of 0.1M sodium phosphate buffer (pH 7.4) containing 0.1% L-DOPA. The absorbance was then monitored at 450 nm and compared with purified mushroom tyrosinase (Sigma). The standard curve was prepared limiting linearity within the range of experimental value."}, "Tyrosinase [2]": {"system": "Tyrosinase", "assay": "Tyrosinase activity assay (L-DOPA) in NHEM cells", "assay_type": "cell-based, Human", "settings": "for % increase in tyrosinase activity compared to control / Tyrosinase activity: TYROSINASE ACTIVITY table", "method": "as §1, §2, §3"}, "[3]": {"assay": "Solubility of synthetic peptide IS103", "assay_type": "physicochemical"}, "B16F10 cells": {"system": "B16F10 cells", "assay": "Melanin content assay in B16F10 cells", "assay_type": "cell-based", "settings": "for % increase in melanin content compared to control / Fold change in melanin content: B16F10 CELLS", "method": "as §1, §2\nCells were seeded in a 6-well plate (2×10^4 cells/well) and incubated overnight to allow the cells to adhere. After treating with various test samples for 4 or 5 days, cells were washed with phosphate-buffered saline (PBS), trypsinized, counted, and then lysed in 1 N NaOH at 100° C. for about 1 hour. The melanin content in each sample was calculated by comparison of absorbance at 400 nm of unknown samples with a standard curve obtained using synthetic melanin. […] B16F10 and NHEM cells were treated with different concentrations of IS103 ranging from 0.1 to 1000 μg/ml and analysed melanin contents in cells. […] To assess the toxicity of the IS103 peptide, cell viability was analyzed by MTT assay."}, "[4]": {"settings": "B16F10 cells, different concentrations, about 48 hours"}},
  "note": "PHPP = 3-Phenylpyrazolo[3,4-d]pyrimidine (N-terminal cap)",
  "data": [
    {"substance": "PHPP-Tyr-Arg-Ser-Arg-Lys-Tyr-Ser-Ser-Trp-Tyr-NH2 ({PHPP}-YRSRKYSSWY-NH2) [IS103]", "values": [
      {"measurement": "increase in Tyrosinase activity when compared to control", "setting": "Tyrosinase [1]; B16F10 CELLS, 250 μg/mL", "value": 55.33, "unit": "%"},
      {"measurement": "effect on tyrosinase activity (FIG. 6)", "setting": "Tyrosinase [1]; [4]", "value": "increased tyrosinase activity"},
      {"measurement": "% increase in tyrosinase activity compared to control", "setting": "Tyrosinase [1]; B16F10 CELLS, 0.1 μg/mL", "value": 0, "unit": "%"},
      {"measurement": "Change in tyrosinase activity", "setting": "Tyrosinase [1]; B16F10 CELLS, 0.1 μg/mL", "value": "15.0 ± 1.60"},
      {"measurement": "% increase in tyrosinase activity compared to control", "setting": "Tyrosinase [1]; B16F10 CELLS, 1 μg/mL", "value": 3, "unit": "%"},
      {"measurement": "Change in tyrosinase activity", "setting": "Tyrosinase [1]; B16F10 CELLS, 1 μg/mL", "value": "18.0 ± 2.20"},
      {"measurement": "% increase in tyrosinase activity compared to control", "setting": "Tyrosinase [1]; B16F10 CELLS, 10 μg/mL", "value": 10.33, "unit": "%"},
      {"measurement": "Change in tyrosinase activity", "setting": "Tyrosinase [1]; B16F10 CELLS, 10 μg/mL", "value": "25.3 ± 1.20"},
      {"measurement": "% increase in tyrosinase activity compared to control", "setting": "Tyrosinase [1]; B16F10 CELLS, 50 μg/mL", "value": 24, "unit": "%"},
      {"measurement": "Change in tyrosinase activity", "setting": "Tyrosinase [1]; B16F10 CELLS, 50 μg/mL", "value": "39.0 ± 2.20"},
      {"measurement": "% increase in tyrosinase activity compared to control", "setting": "Tyrosinase [1]; B16F10 CELLS, 100 μg/mL", "value": 42.33, "unit": "%"},
      {"measurement": "Change in tyrosinase activity", "setting": "Tyrosinase [1]; B16F10 CELLS, 100 μg/mL", "value": "57.3 ± 4.20"},
      {"measurement": "% increase in tyrosinase activity compared to control", "setting": "Tyrosinase [1]; B16F10 CELLS, 250 μg/mL", "value": 55.33, "unit": "%"},
      {"measurement": "Change in tyrosinase activity", "setting": "Tyrosinase [1]; B16F10 CELLS, 250 μg/mL", "value": "70.3 ± 1.70"},
      {"measurement": "% increase in tyrosinase activity compared to control", "setting": "Tyrosinase [1]; B16F10 CELLS, 500 μg/mL", "value": 62, "unit": "%"},
      {"measurement": "Change in tyrosinase activity", "setting": "Tyrosinase [1]; B16F10 CELLS, 500 μg/mL", "value": "77.0 ± 3.00"},
      {"measurement": "% increase in tyrosinase activity compared to control", "setting": "Tyrosinase [1]; B16F10 CELLS, 1000 μg/mL", "value": 60.33, "unit": "%"},
      {"measurement": "Change in tyrosinase activity", "setting": "Tyrosinase [1]; B16F10 CELLS, 1000 μg/mL", "value": "75.3 ± 2.50"},
      {"measurement": "increase in Tyrosinase activity when compared to control", "setting": "Tyrosinase [2]; NHEM CELLS, 250 μg/mL", "value": 55.67, "unit": "%"},
      {"measurement": "effect on tyrosinase activity (FIG. 7)", "setting": "Tyrosinase [2]; NHEM cells, different concentrations, about 48 hours", "value": "increased tyrosinase activity"},
      {"measurement": "% increase in tyrosinase activity compared to control", "setting": "Tyrosinase [2]; NHEM CELLS, 0.1 μg/mL", "value": "−0.67", "unit": "%"},
      {"measurement": "Tyrosinase activity", "setting": "Tyrosinase [2]; NHEM CELLS, 0.1 μg/mL", "value": "13.7 ± 1.24"},
      {"measurement": "% increase in tyrosinase activity compared to control", "setting": "Tyrosinase [2]; NHEM CELLS, 1 μg/mL", "value": 3.67, "unit": "%"},
      {"measurement": "Tyrosinase activity", "setting": "Tyrosinase [2]; NHEM CELLS, 1 μg/mL", "value": "18.0 ± 3.30"},
      {"measurement": "% increase in tyrosinase activity compared to control", "setting": "Tyrosinase [2]; NHEM CELLS, 10 μg/mL", "value": 10.67, "unit": "%"},
      {"measurement": "Tyrosinase activity", "setting": "Tyrosinase [2]; NHEM CELLS, 10 μg/mL", "value": "25.0 ± 0.80"},
      {"measurement": "% increase in tyrosinase activity compared to control", "setting": "Tyrosinase [2]; NHEM CELLS, 50 μg/mL", "value": 22.67, "unit": "%"},
      {"measurement": "Tyrosinase activity", "setting": "Tyrosinase [2]; NHEM CELLS, 50 μg/mL", "value": "37.0 ± 3.00"},
      {"measurement": "% increase in tyrosinase activity compared to control", "setting": "Tyrosinase [2]; NHEM CELLS, 100 μg/mL", "value": 45.33, "unit": "%"},
      {"measurement": "Tyrosinase activity", "setting": "Tyrosinase [2]; NHEM CELLS, 100 μg/mL", "value": "59.7 ± 1.90"},
      {"measurement": "% increase in tyrosinase activity compared to control", "setting": "Tyrosinase [2]; NHEM CELLS, 250 μg/mL", "value": 55.67, "unit": "%"},
      {"measurement": "Tyrosinase activity", "setting": "Tyrosinase [2]; NHEM CELLS, 250 μg/mL", "value": "70.0 ± 2.20"},
      {"measurement": "% increase in tyrosinase activity compared to control", "setting": "Tyrosinase [2]; NHEM CELLS, 500 μg/mL", "value": 61, "unit": "%"},
      {"measurement": "Tyrosinase activity", "setting": "Tyrosinase [2]; NHEM CELLS, 500 μg/mL", "value": "75.3 ± 2.50"},
      {"measurement": "% increase in tyrosinase activity compared to control", "setting": "Tyrosinase [2]; NHEM CELLS, 1000 μg/mL", "value": 61, "unit": "%"},
      {"measurement": "Tyrosinase activity", "setting": "Tyrosinase [2]; NHEM CELLS, 1000 μg/mL", "value": "75.3 ± 2.60"},
      {"measurement": "Solubility", "setting": "[3]", "value": "soluble in water"},
      {"measurement": "% increase in melanin content compared to control", "setting": "B16F10 cells; 0.1 μg/mL", "value": 0, "unit": "%"},
      {"measurement": "Fold change in melanin content", "setting": "B16F10 cells; 0.1 μg/mL", "value": "1.0 ± 0.20"},
      {"measurement": "% increase in melanin content compared to control", "setting": "B16F10 cells; 1 μg/mL", "value": 0, "unit": "%"},
      {"measurement": "Fold change in melanin content", "setting": "B16F10 cells; 1 μg/mL", "value": "1.0 ± 0.30"},
      {"measurement": "% increase in melanin content compared to control", "setting": "B16F10 cells; 10 μg/mL", "value": 20, "unit": "%"},
      {"measurement": "Fold change in melanin content", "setting": "B16F10 cells; 10 μg/mL", "value": "1.2 ± 0.10"},
      {"measurement": "% increase in melanin content compared to control", "setting": "B16F10 cells; 50 μg/mL", "value": 60, "unit": "%"},
      {"measurement": "Fold change in melanin content", "setting": "B16F10 cells; 50 μg/mL", "value": "1.6 ± 0.20"},
      {"measurement": "% increase in melanin content compared to control", "setting": "B16F10 cells; 100 μg/mL", "value": 125, "unit": "%"},
      {"measurement": "Fold change in melanin content", "setting": "B16F10 cells; 100 μg/mL", "value": "2.3 ± 0.30"},
      {"measurement": "% increase in melanin content compared to control", "setting": "B16F10 cells; 250 μg/mL", "value": 180, "unit": "%"},
      {"measurement": "Fold change in melanin content", "setting": "B16F10 cells; 250 μg/mL", "value": "2.8 ± 0.20"},
      {"measurement": "% increase in melanin content compared to control", "setting": "B16F10 cells; 500 μg/mL", "value": 190, "unit": "%"},
      {"measurement": "Fold change in melanin content", "setting": "B16F10 cells; 500 μg/mL", "value": "2.9 ± 0.10"},
      {"measurement": "% increase in melanin content compared to control", "setting": "B16F10 cells; 1000 μg/mL", "value": 176, "unit": "%"},
      {"measurement": "Fold change in melanin content", "setting": "B16F10 cells; 1000 μg/mL", "value": "2.8 ± 0.30"},
      {"measurement": "concentration sufficient to significantly enhance melanin synthesis", "setting": "B16F10 cells; B16F10 and NHEM cells, not distinguished", "value": 10, "unit": "µg/mL"},
      {"measurement": "effect on melanin synthesis (FIG. 4)", "setting": "B16F10 cells; [4]", "value": "enhanced melanin synthesis in a dose-dependent manner"}
    ]}
  ]
}
